Data from the supplement of paper PMC4862054.

Legend:
Details in all cases: incubation time: 72 h
BT-474 [1] = assay: normalised response (% of control), CellTox Green; higher = less cell death (100 = DMSO, 0 = benzethonium chloride kill control)
Procedure, shortened: (§1)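 Plates were normalised with 0.1 % DMSO as 100 and a positive kill control as 0. Breast cancer cell lines in 20 µl suspension had been seeded into 384-well plates with compound at 5 concentrations in 10-fold steps over a compound-specific 10,000-fold range, incubated 72 h, and read for CellTox Green fluorescence (485/520 nm) followed by CellTiter-Glo luminescence. Each value is the normalised signal at a single concentration.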

BT-549 [2] = assay: as above
Procedure, shortened: as §1

CAL-120 [3] = assay: as above
Procedure, shortened: as §1

CAL-148 [4] = assay: as above
Procedure, shortened: as §1

CAL-51 [5] = assay: as above
Procedure, shortened: as §1

CAL-85-1 [6] = assay: as above
Procedure, shortened: as §1

DU-4475 [7] = assay: as above
Procedure, shortened: as §1

HCC1143 [8] = assay: as above
Procedure, shortened: as §1

HCC1599 [9] = assay: as above
Procedure, shortened: as §1

HCC1937 [10] = assay: as above
Procedure, shortened: as §1

HDQ-P1 [11] = assay: as above
Procedure, shortened: as §1

Hs578T [12] = assay: as above
Procedure, shortened: as §1

MCF-10A [13] = assay: as above
Procedure, shortened: as §1

MDA-MB-231 [14] = assay: as above
Procedure, shortened: as §1

MDA-MB-436 [15] = assay: as above
Procedure, shortened: as §1

MDA-MB-453 [16] = assay: as above
Procedure, shortened: as §1

MDA-MB-468 [17] = assay: as above
Procedure, shortened: as §1

MFM-223 [18] = assay: as above
Procedure, shortened: as §1

BT-474 [19] = assay: normalised response (% of control), CellTiter-Glo; higher = more viable cells (100 = DMSO, 0 = benzethonium chloride kill control)
Procedure, shortened: as §1

BT-549 [20] = assay: as above
Procedure, shortened: as §1

CAL-120 [21] = assay: as above
Procedure, shortened: as §1

CAL-148 [22] = assay: as above
Procedure, shortened: as §1

CAL-51 [23] = assay: as above
Procedure, shortened: as §1

CAL-85-1 [24] = assay: as above
Procedure, shortened: as §1

DU-4475 [25] = assay: as above
Procedure, shortened: as §1

HCC1143 [26] = assay: as above
Procedure, shortened: as §1

HCC1599 [27] = assay: as above
Procedure, shortened: as §1

HCC1937 [28] = assay: as above
Procedure, shortened: as §1

HDQ-P1 [29] = assay: as above
Procedure, shortened: as §1

Hs578T [30] = assay: as above
Procedure, shortened: as §1

MCF-10A [31] = assay: as above
Procedure, shortened: as §1

MDA-MB-231 [32] = assay: as above
Procedure, shortened: as §1

MDA-MB-436 [33] = assay: as above
Procedure, shortened: as §1

MDA-MB-453 [34] = assay: as above
Procedure, shortened: as §1

MDA-MB-468 [35] = assay: as above
Procedure, shortened: as §1

MFM-223 [36] = assay: as above
Procedure, shortened: as §1

SK-BR-3 = assay: as above
Procedure, shortened: as §1

Compound | normalised response (BT-474 [1]) | normalised response (BT-549 [2]) | normalised response (CAL-120 [3]) | normalised response (CAL-148 [4]) | normalised response (CAL-51 [5]) | normalised response (CAL-85-1 [6]) | normalised response (DU-4475 [7]) | normalised response (HCC1143 [8]) | normalised response (HCC1599 [9]) | normalised response (HCC1937 [10]) | normalised response (HDQ-P1 [11]) | normalised response (Hs578T [12]) | normalised response (MCF-10A [13]) | normalised response (MDA-MB-231 [14]) | normalised response (MDA-MB-436 [15]) | normalised response (MDA-MB-453 [16]) | normalised response (MDA-MB-468 [17]) | normalised response (MFM-223 [18]) | normalised response (BT-474 [19]) | normalised response (BT-549 [20]) | normalised response (CAL-120 [21]) | normalised response (CAL-148 [22]) | normalised response (CAL-51 [23]) | normalised response (CAL-85-1 [24]) | normalised response (DU-4475 [25]) | normalised response (HCC1143 [26]) | normalised response (HCC1599 [27]) | normalised response (HCC1937 [28]) | normalised response (HDQ-P1 [29]) | normalised response (Hs578T [30]) | normalised response (MCF-10A [31]) | normalised response (MDA-MB-231 [32]) | normalised response (MDA-MB-436 [33]) | normalised response (MDA-MB-453 [34]) | normalised response (MDA-MB-468 [35]) | normalised response (MFM-223 [36]) | normalised response (SK-BR-3)
CS(=O)(=O)c1ccc(C2=C(c3ccccc3)C(=O)OC2)cc1 [Rofecoxib] (1000 nM) | 102% | 98.2% | 101% | 105% | 99.8% | 112% | 112% | 116% | 100% | 96% | 82% | 108% | 118% | 112% | 99.2% | 108% | 127% | 103% | 101% | 95.4% | 103% | 102% | 104% | 103% | 98.8% | 103% | 118% | 97% | 100% | 112% | 122% | 107% | 105% | 97% | 103% | 104% | 116%
COc1cc2ncnc(Nc3ccc(F)c(Cl)c3)c2cc1NC(=O)/C=C/CN1CCCCC1 [Dacomitinib] (100 nM) | 70.4% | 98.9% | 96.7% | 97.8% | 78.7% | 80.4% | 99.5% | 102% | 99.1% | 92.7% | 89.4% | 101% | 94.3% | 109% | 96.8% | 87.4% | 74.8% | 100% | 94% | 95.4% | 99.7% | 82% | 112% | 61% | 96.2% | 94.9% | 110% | 93.3% | 68.6% | 101% | 38.9% | 97.5% | 92.1% | 72.7% | 87.1% | 105% | 36.1%
N#CCNC(=O)c1ccc(-c2ccnc(Nc3ccc(N4CCOCC4)cc3)n2)cc1 [Momelotinib] (1000 nM) | 101% | 96.5% | 102% | 98.7% | 117% | 89.6% | 97.7% | 113% | 95.9% |  | 111% | 99.4% | 108% | 100% | 103% | 108% | 178% | 99.5% | 77.1% | 89.6% | 75.8% | 85% | 122% | 92.7% | 90.5% | 91.7% | 110% | 108% | 107% | 93% | 77% | 77.2% | 96.9% | 113% | 82.5% | 93.4% | 86.6%
N.N.[Cl][Pt][Cl] [Cisplatin] (100 nM) | 99.2% | 80.2% | 109% | 105% | 103% | 121% | 107% | 109% | 97.4% |  | 118% | 85.4% | -220% | 74% | 107% | 110% | 94.6% | 82.7% | 102% | 90.4% | 101% | 90.7% | 116% | 96.2% | 90.2% | 104% | 98.7% | 102% | 107% | 102% | 1.72% | 98.7% | 101% | 94.9% | 98.5% | 96.6% | 99.2%
